Measurements as given in patent publication US12310986B2, “Compositions and methods for the treatment of cancer cells by induction of cytotoxic oxidative stress” (Board of Regents, The University of Texas System, priority 2018, dated 2025).
Entries after “also recorded” stand apart in the source; their conditions may differ.

Assays:
HCT116 cells [1] = assay: Reactive oxygen species (ROS) detection by flow cytometry, Mito Sox Red, HCT116 cells; assay type: cell-based, human; conditions: VC or D-VC 1 mM, ATO 5 μM
Procedure: FIG. 4: Detection of reactive oxygen species (ROS) by flow cytometry. HCT116 cells were treated with the indicated compounds as described in the FIG. 1 and analyzed by flow cytometry to detect the presence of reactive oxygen species by Mito Sox Red reagent. Mito Sox Red is a reagent from Invitrogen™ catalog #LSM360084
FIG. 5: Graphical representation of the presence of reactive oxygen species (ROS) as detected by flow cytometry. The ROS detection data shown in the FIG. 4 is presented as a graph.
It was anticipated that the cause of cytotoxic stress and apoptosis was the accumulation of reactive oxygen species (ROS), so HCT116 cells were treated as above and assayed for the presence of ROS by flow cytometry (FIG. 4). […] Treatment with 5 μM ATO increased the cells showing ROS accumulation to 26% (FIGS. 4 and 5).

HCT116 xenograft tumors = assay: HCT116 (KRAS mutant) xenograft tumors in nude mice; assay type: in vivo; conditions: VC or D-VC 1.5 g/kg, ATO 7 mg/kg; for effect on tumor growth compared to PBS (control) injections: 15 injections; for scarring on tumors (mice with scarring): 5 mice per group; for tumor weight compared to PBS treated tumors: after 15 injections, one way ANOVA
Procedure: Pictured are the xenograft tumors of each of the 5 mice per treatment condition. Mice were injected intraperitoneally with PBS (control), Vitamin C (1.5 g/kg), D-Vitamin C (1.5 g/kg), ATO 7 mg/kg), ATO (7 mg/kg)+Vitamin C (1.5 g/kg) or ATO (7 mg/kg)+D-Vitamin C (1.5 g/kg). Mice were injected daily for 6 days and after 6th injection mice were rested for one day.
Pictured are the xenograft tumors of each of the 5 mice per treatment condition as described in FIG. 6 after 12 injections (2 weeks of treatment).
To avoid glucose fluctuations in blood, the food was withdrawn from mice 2 hrs prior drug injections and food was given back to mice after 2 hrs of the VC or D-VC injection.
1.5 million human HCT116 (KRAS mutant) cancer cells were injected into nude mice, 5 mice per experimental group. After 10 days, and after when tumors reached at least 0.8 cm in size, mice were injected daily with either PBS, PBS+1.5 g/kg vitamin C, PBS+7 mg/kg ATO. PBS+7 mg/kg ATO+1.5 g/kg vitamin C, PBS+1.5 g/kg D-Vitamin C, or PBS+7 mg/kg ATO+1.5 g/kg D-Vitamin C. The mice were injected daily, 6 times per week, and rested one day per week, for a total of 15 total drug injections. […] Initially, ATO was injected at 3 mg/kg, while vitamin C or D-VC were injected at 1 g/kg. The following day, ATO was used at 7 mg/kg, while vitamin C and D-VC were used at […].
The injection scheme was ATO injection/2 hour gap/vitamin C or D-VC injection. […] Further, it is also known that the effect of vitamin C treatment on KRAS mutant cancer cells is glucose dependent, To avoid glucose fluctuations in the blood and enhance the effect of vitamin C and D-VC, the drug injections were performed following withdrawal of the food from mice 2 hours prior ATO injections, and the food was only provided again 2 hours following the vitamin C or D-VC injections.

HCT116 cells [2] = assay: Apoptosis flow cytometric assay, Annexin V FITC, HCT116 cells; assay type: cell-based, human; conditions: HCT116, 72 hours; VC or D-VC 1 mM, ATO 5 μM
Procedure: FIG. 2: Apoptotic flow cytometric analysis of HCT116 cancer following drug treatments. HCT116 cells were treated with the drugs as described in the FIG. 1 and following treatments the cells were stained with Annexin-V FITC and sorted.
FIG. 3: Graphical representation of apoptosis by flow cytometry data. Apoptotic flow cytometric data shown in the FIG. 2 is presented as a graph.

HCT116 cancer cells = assay: Cytotoxicity in colorectal HCT116 cancer cells, 72 hours treatment (cell images); assay type: cell-based, human; conditions: HCT116, 72 hours; VC or D-VC 1 mM, ATO 5 μM; compared to buffer
Procedure: Colorectal HCT116 cancer cells were treated with the indicated solutions for 72 hours: control (phosphate buffered saline, PBS, was added to the culture medium in 1:1000 dilution), VC 1 mM (Vitamin C was used at 1 mM concentration), D-VC 1 mM (D-Vitamin C was used at 1 mM concentration), ATO 5 μM (Arsenic Trioxide was used at 5 μM concentration) and the combination of VC 1 mM with ATO 5 μM or D-VC 1 mM with ATO 5 μM. The cell images are shown with the labeling indicating cell treatments.
Colorectal HCT116 cancer cells were treated for 72 hours with PBS, a 1 mM Vitamin C (VC) solution, 1 mM D-Vitamin CVC (D-VC also referred as D-ascorbic acid), 5 μM arsenic trioxide (ATO), Vitamin C and ATO (VC/ATO), or D-VC and ATO (D-VC/ATO) (FIG. 1).

[3] = after 12 injections (2 weeks of treatment)

Compound	cells accumulating ROS (HCT116 cells [1])	effect on tumor growth compared to PBS (control) injections (HCT116 xenograft tumors)	scarring on tumors (mice with scarring) (HCT116 xenograft tumors; after 9 injections / within the first week of injections, intraperitoneally)	scarring on tumors (mice with scarring) (HCT116 xenograft tumors; [3])	tumor weight compared to PBS treated tumors (HCT116 xenograft tumors)	apoptosis (Annexin V FITC) (HCT116 cells [2])	cytotoxicity (HCT116 cancer cells)
O=C1O[C@@H]([C@H](O)CO)C(O)=C1O [D-VC, D-ascorbic acid]	about 5%	inhibitory effect on tumor growth; also recorded: appeared to be more effective alone but its effect was not consistent	2/5	2/5	lower compared to the PBS treated tumors, however these differences were not statistically significant	level of apoptosis similar to the buffer control	–
O=C1O[C@H]([C@@H](O)CO)C(O)=C1O [VC, L-ascorbic acid]	about 5%	inhibitory effect on tumor growth	–	–	lower compared to the PBS treated tumors, however these differences were not statistically significant	level of apoptosis similar to the buffer control	–
arsenic trioxide [ATO]	26%	inhibitory effect on tumor growth	–	2/5	lower compared to the PBS treated tumors, however these differences were not statistically significant	low increase in apoptosis over the buffer control	mild cytotoxic impact
